Measurements reported in patent publication US4565774A, “Method for the formation of dye image” (priority 1981, dated 1986).
Read-outs that look alike come from different tables or passages of the source.

Assay: acid dissociation constant (Ka) of the added compound, measured at a normal temperature
Type: physicochemical
Description: The acid dissociation constant value is what was measured at a normal temperature, and is described in, e.g., the annex vol. 2 to the "Dai Yuki-Kagaku (Complete Organic Chemistry)" (published by Asakura Publishing Co., Ltd.), "The Theory of Photographic Process" written by T. H. James, 4th ed. (Published by McMillan), and the like. For the measurement of the acid dissociation constant there are several methods, and reference may be made to, e.g., the "Jikken Kagaku Koza (Course of Experimental Chemistry)" vol. 11, second series, (published by Maruzen Co., Ltd.) pp. 524 to 552, and the like.
To the above-prepared developer was added each of the compounds as given in Table 1 to thereby prepare color developers [A] to [M].

[1] = normal temperature, read-out: acid dissociation constant (Ka) (converted)

Row | SMILES | pKa [1] | pKa
1 | c1ccc2[nH]cnc2c1 [Exemplified compound S-1] | 11.7 | –
2 | CCCc1ccc2nc[nH]c2c1 [Exemplified compound S-5] | 10.3 | –
3 | c1c[nH]cn1 [Comparative compound (1), Imidazole] | 7.2 | –
4 | Sc1nnnn1-c1ccccc1 [Comparative compound (3), 1-phenyl-5-mercaptotetrazole] | 3.34 | –
5 | Nc1ncnc2nc[nH]c12 [Exemplified compound S-11] | – | 9.8
6 | Cc1cc(O)n2ncnc2n1 [Comparative compound (2), 4-hydroxy-6-methyl-1,3,3a,7-tetrazaindene] | 6.49 | –
